Tests used:
Type in all cases: cell-based, human
[1] = tested on: TCR NYN-2 (Jurkat E6-1 TPR cells)
[2] = tested on: TCR NYN-1 (Jurkat E6-1 TPR cells)
[3] = tested on: TCR NYN-3 (Jurkat E6-1 TPR cells)
[4] = tested on: NYN peptide-specific TCRs (NYN-1 to NYN-4 Jurkat E6-1 TPR cell lines)

NYDYMYRLF [N450D + L452M]
effect of the mutation on response / affinity of NYN-2 (in words) [1]: slightly disrupted the response
effect of the mutation on response / affinity of NYN-1 (in words) [2]: not
effect of the mutation on response / affinity of NYN-3 (in words) [3]: slightly disrupted the response

NYDYWYRLF [N450D + L452W]
effect of the mutation on response / affinity of NYN-2 (in words) [1]: increased the affinity
effect of the mutation on the T-cell response / recognition (in words) [4]: did not affect the T-cell response
effect of the mutation on response / affinity of NYN-3 (in words) [3]: increased the affinity

From article PMC11641755, “Features of Highly Homologous T-Cell Receptor Repertoire in the Immune Response to Mutations in Immunogenic Epitopes” (International Journal of Molecular Sciences, 2024)
